According to US6737383B1, “Herbicidal oxadiazolidines” (priority 1999, dated 2004):

Columns and labels:
bedstraw = assay: Test B pre/postemergence bedstraw; format: in vivo, Galium aparine
How it was run: (§1)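 Herbicidal effect was estimated by eye on a ten-point control scale after plants spent twelve to sixteen days in a greenhouse following soil or foliar treatment. Foliar sprays targeted plants at one to four leaves; all doses were formulated in a non-phytotoxic solvent with surfactant.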

blackgrass = assay: Test B pre/postemergence blackgrass; format: in vivo, Alopecurus myosuroides
How it was run: as §1

surinam grass = assay: Test B pre/postemergence surinam grass; format: in vivo, Brachiaria decumbens
How it was run: as §1

cocklebur = assay: Test B pre/postemergence cocklebur; format: in vivo, Xanthium strumarium
How it was run: as §1

corn = assay: Test B pre/postemergence corn; format: in vivo, Zea mays
How it was run: as §1

crabgrass = assay: Test B pre/postemergence crabgrass; format: in vivo, Digitaria sanguinalis
How it was run: as §1

pigweed = assay: Test B pre/postemergence pigweed; format: in vivo, Amaranthus retroflexus
How it was run: as §1

rape = assay: Test B pre/postemergence rape; format: in vivo, Brassica napus
How it was run: as §1

soybean = assay: Test B pre/postemergence soybean; format: in vivo, Glycine max
How it was run: as §1

sugar beet = assay: Test B pre/postemergence sugar beet; format: in vivo, Beta vulgaris
How it was run: as §1

velvetleaf = assay: Test B pre/postemergence velvetleaf; format: in vivo, Abutilon theophrasti
How it was run: as §1

wheat = assay: Test B pre/postemergence wheat; format: in vivo, Triticum aestivum
How it was run: as §1

wild oat = assay: Test B pre/postemergence wild oat; format: in vivo, Avena fatua
How it was run: as §1

purple nutsedge = assay: Test B pre/postemergence purple nutsedge; format: in vivo, Cyperus rotundus
How it was run: as §1

smallflower flatsedge = assay: Test B flood test smallflower flatsedge; format: in vivo, Cyperus difformis; details: Pre-emergence
How it was run: (§2)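 Read-out is a visual response score from 0 (no effect) to 10 (complete control), assigned by comparison with untreated controls. Treatment was applied at the 2-leaf stage, and plants stayed in the greenhouse for twelve to sixteen days before scoring.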

bamyardgrass = assay: Test B flood test barnyardgrass; format: in vivo, Echinochloa crus-galli; details: Pre-emergence
How it was run: as §2

[1] = Preemergence, Rate 62 g/ha, scale of 0 to 10 where 0 is no effect and 10 is complete control
[2] = Preemergence, Rate 500 g/ha, scale of 0 to 10 where 0 is no effect and 10 is complete control
[3] = Rate 62 g/ha, Postemergence, scale 0 to 10, 0 no effect, 10 complete control
[4] = Rate 125 g/ha, Postemergence, scale of 0 to 10 where 0 is no effect and 10 is complete control
[5] = Rate 250 g/ha, Postemergence, scale of 0 to 10 where 0 is no effect and 10 is complete control
[6] = Rate 500 g/ha, Postemergence, scale 0 to 10, 0 no effect, 10 complete control
[7] = Preemergence, Rate 250 g/ha, scale of 0 to 10 where 0 is no effect and 10 is complete control
[8] = Rate 1000 g/ha, scale 0 to 10 (0 no effect, 10 complete control)
[9] = Rate 125 g/ha, flood test species, scale 0 to 10 where 0 is no effect and 10 is complete control
[10] = Rate 250 g/ha, flood-test species, scale 0 to 10, 0 is no effect, 10 is complete control

**Q.** Which results are given for `CC(C)N(C(=O)n1oc(=O)n(CC2CCCC2)c1=O)c1ccc(F)cc1` [Compound 322]?
**A.** Bedstraw plant response rating (bedstraw; [1]): 0; Bedstraw plant response rating (0 to 10 scale) (bedstraw; Preemergence, Rate 125 g/ha): 0; Bedstraw plant response rating (bedstraw; [2]): 2; Bedstraw plant response rating (bedstraw; [3]): 0; Bedstraw plant response rating (bedstraw; [4]): 0; Plant response rating, Bedstraw (bedstraw; [5]): 4; Plant response rating, Bedstraw (bedstraw; [6]): 4; Blackgrass plant response rating (blackgrass; [1]): 0; Blackgrass plant response rating (0 to 10 scale) (blackgrass; Preemergence, Rate 125 g/ha): 0; Blackgrass plant response rating (blackgrass; [7]): 5; Blackgrass plant response rating (blackgrass; [2]): 7; Blackgrass plant response rating (blackgrass; [3]): 0; Blackgrass plant response rating (blackgrass; [4]): 0; Plant response rating, Blackgrass (blackgrass; [5]): 1; Plant response rating, Blackgrass (blackgrass; [6]): 8; B. signalgrass plant response rating (surinam grass; [1]): 0; B. signalgrass plant response rating (0 to 10 scale, 0 is no effect, 10 is complete control) (surinam grass; Preemergence, Rate 125 g/ha): 0; B. signalgrass plant response rating (surinam grass; [7]): 1; B. signalgrass plant response rating (surinam grass; [2]): 3; B. signalgrass plant response rating (surinam grass; [3]): 0; B. signalgrass plant response rating (surinam grass; [4]): 0; Plant response rating, B. signalgrass (surinam grass; [5]): 0; Plant response rating, B. signalgrass (surinam grass; [6]): 3; Cocklebur plant response rating (cocklebur; [1]): 0; Cocklebur plant response rating (0 to 10 scale) (cocklebur; Preemergence, Rate 125 g/ha): 0; Cocklebur plant response rating (cocklebur; [7]): 0; Cocklebur plant response rating (cocklebur; [2]): 4; Cocklebur plant response rating (cocklebur; [3]): 0; Cocklebur plant response rating (cocklebur; [4]): 0; Plant response rating, Cocklebur (cocklebur; [5]): 0; Plant response rating, Cocklebur (cocklebur; [6]): 4; Corn plant response rating (corn; [1]): 0; Corn plant response rating (0 to 10 scale) (corn; Preemergence, Rate 125 g/ha): 0; Corn plant response rating (corn; [7]): 0; Corn plant response rating (corn; [2]): 0; Corn plant response rating (corn; [3]): 0; Corn plant response rating (corn; [4]): 0; Plant response rating, Corn (corn; [5]): 0; Plant response rating, Corn (corn; [6]): 0; Crabgrass plant response rating (crabgrass; [1]): 1; Crabgrass plant response rating (0 to 10 scale) (crabgrass; Preemergence, Rate 125 g/ha): 2; Crabgrass plant response rating (crabgrass; [7]): 5; Crabgrass plant response rating (crabgrass; [2]): 7; Crabgrass plant response rating (crabgrass; [3]): 0; Crabgrass plant response rating (crabgrass; [4]): 0; Plant response rating, Crabgrass (crabgrass; [5]): 2; Plant response rating, Crabgrass (crabgrass; [6]): 5; Redroot pigweed plant response rating (pigweed; [1]): 0; Redroot pigweed plant response rating (0 to 10 scale) (pigweed; Preemergence, Rate 125 g/ha): 6; Redroot pigweed plant response rating (pigweed; [7]): 8; Redroot pigweed plant response rating (pigweed; [2]): 8; Redroot pigweed plant response rating (pigweed; [3]): 2; Redroot pigweed plant response rating (pigweed; [4]): 3; Plant response rating, Redroot pigweed (pigweed; [5]): 3; Plant response rating, Redroot pigweed (pigweed; [6]): 6; Rape plant response rating (rape; [1]): 0; Rape plant response rating (0 to 10 scale) (rape; Preemergence, Rate 125 g/ha): 0; Rape plant response rating (rape; [7]): 0; Rape plant response rating (rape; [2]): 2; Rape plant response rating (rape; [3]): 0; Rape plant response rating (rape; [4]): 0; Plant response rating, Rape (rape; [5]): 0; Plant response rating, Rape (rape; [6]): 0; Soybean plant response rating (soybean; [1]): 0; Soybean plant response rating (0 to 10 scale) (soybean; Preemergence, Rate 125 g/ha): 0; Soybean plant response rating (soybean; [7]): 0; Soybean plant response rating (soybean; [2]): 0; Soybean plant response rating (soybean; [3]): 1; Soybean plant response rating (soybean; [4]): 3; Plant response rating, Soybean (soybean; [5]): 4; Plant response rating, Soybean (soybean; [6]): 5; Sugarbeets plant response rating (sugar beet; [1]): 0; Sugarbeets plant response rating (0 to 10 scale) (sugar beet; Preemergence, Rate 125 g/ha): 2; Sugarbeets plant response rating (sugar beet; [7]): 2; Sugarbeets plant response rating (sugar beet; [2]): 4; Sugarbeets plant response rating (sugar beet; [3]): 0; Sugarbeets plant response rating (sugar beet; [4]): 0; Plant response rating, Sugarbeets (sugar beet; [5]): 0; Plant response rating, Sugarbeets (sugar beet; [6]): 2; Velvetleaf plant response rating (velvetleaf; [1]): 0; Velvetleaf plant response rating (0 to 10 scale) (velvetleaf; Preemergence, Rate 125 g/ha): 0; Velvetleaf plant response rating (velvetleaf; [7]): 0; Velvetleaf plant response rating (velvetleaf; [2]): 0; Velvetleaf plant response rating (velvetleaf; [3]): 0; Velvetleaf plant response rating (velvetleaf; [4]): 0; Plant response rating, Velvetleaf (velvetleaf; [5]): 0; Plant response rating, Velvetleaf (velvetleaf; [6]): 2; Wheat plant response rating (wheat; [1]): 0; Wheat plant response rating (0 to 10 scale) (wheat; Preemergence, Rate 125 g/ha): 0; Wheat plant response rating (wheat; [7]): 0; Wheat plant response rating (wheat; [2]): 0; Wheat plant response rating (wheat; [3]): 0; Wheat plant response rating (wheat; [4]): 0; Plant response rating, Wheat (wheat; [5]): 0; Plant response rating, Wheat (wheat; [6]): 3; Wild oats plant response rating (wild oat; [1]): 0; Wild oats plant response rating (0 to 10 scale) (wild oat; Preemergence, Rate 125 g/ha): 0; Wild oats plant response rating (wild oat; [7]): 2; Wild oats plant response rating (wild oat; [2]): 3; Wild oats plant response rating (wild oat; [3]): 0; Wild oats plant response rating (wild oat; [4]): 0; Plant response rating, Wild oats (wild oat; [5]): 0; Plant response rating, Wild oats (wild oat; [6]): 2; Nutsedge plant response rating (purple nutsedge; [1]): 0; Nutsedge plant response rating (0 to 10 scale) (purple nutsedge; Preemergence, Rate 125 g/ha): 0; Nutsedge plant response rating (purple nutsedge; [7]): 0; Nutsedge plant response rating (purple nutsedge; [2]): 0; Nutsedge plant response rating (purple nutsedge; [3]): 0; Nutsedge plant response rating (purple nutsedge; [4]): 0; Plant response rating, Nutsedge (purple nutsedge; [5]): 0; Plant response rating, Nutsedge (purple nutsedge; [6]): 0; S. Flatsedge plant response rating (smallflower flatsedge; [8]): 0; S. Flatsedge plant response rating (smallflower flatsedge; [9]): 0; S. Flatsedge plant response rating (smallflower flatsedge; [10]): 0; Barnyardgrass plant response rating (bamyardgrass; [8]): 9; Barnyardgrass plant response rating (bamyardgrass; [9]): 3; Barnyardgrass plant response rating (bamyardgrass; [10]): 7
